Patent US20250212884A1, “Magnesia Compounds For Preventing Contamination Of Animal Farming Facilities And For Decontamination Of Same” (priority 2022, published 2025)

Test system: Salmonella
Experiment: Salmonella detection (drag swabs, ISO 6579-1:2017) in poultry (turkey) buildings one week after spraying of disinfectant
Parameters: species or system Salmonella spp.
Details: Experiment 3; one week after application; 500 liter per 1000 m^2

Cc1ccc(S(=O)(=O)NCl)cc1.[Na] [Chlorigal T, Sodium N-chloro-para-toluenesulfonamide]
Salmonella test result, Sample #1: Negative | Salmonella test result, Sample #2: Negative
